The text below walks through data of US9388124B2, “Ingenol-3-acylates I” (LEO LABORATORIES LIMITED, priority 2010, dated 2016).

Holding throughout (format): cell-based
Experiment [1] relates to PMN's (polymorphonuclear leukocytes). Briefly: Neutrophil oxidative burst assay. Particulars: Leukocyte, 40 min, read-out: Neutrophil oxidative burst Rel EC50 range. The procedure: Neutrophil Oxidative Burst Assay:
PMN's (polymorphonuclear leukocytes) were isolated and purified from fresh buffy coats by sequential sedimentation, density centrifugation and lysis of contaminating erythrocytes. Buffy coats were incubated with 2% methocel for 30-45 min to differentially sediment red blood cells. The leukocyte-rich supernatant was transferred to lymphoprep tubes to remove mononuclear cells by density centrifugation (400×g, 30 min). The pellet was resuspended and any remaining erythrocytes lysed using 0.2% NaCl for 30 sec before restoring isotonicity by the addition of 1.2% NaCl. This step was repeated until the cell pellet appears relatively free of red blood cells. Cells were resuspended in DPBS (Dulbecco's Phosphate Buffered Saline) (w.o. Ca^2+, Mg^2+) and the concentration adjusted to 1.4×10^6 cells/ml in HBSS (Hanks Balanced Salt solution) (w Ca^2+, Mg^2+) containing 0.1% BSA (Bovine Serum Albumin) and 5 mM glucose just prior to assay initiation. Titrated reference and test compounds were pre-mixed with HE (Hydroethidine) (10 μM final assay concentration) before addition to 96-well plates containing 2.5×10^5 cells. Following 40 min incubation at RT, changes in the respiratory burst was estimated by measuring fluorescence at 579 nm (excitation: 485 nm) using an Envision plate reader.
Test compound titration curves were fitted to a four-parameter sigmoidal curve after normalizing the effect of the test compound to the effect of the positive control (5×10^−7 M PEP0005). Rel EC50 denotes the concentration of test compound producing an effect that is midway between the fitted top and bottom. Abs EC50 is the concentration of test compound that provokes a response corresponding to 50% of the maximal effect associated with the positive control (5×10^−7 M PEP0005).

The test system of experiment [2] is Primary human epidermal keratinocytes, HeKa. Briefly: HeKa cytokine release (IL-8) assay. Particulars: HEKa, 6 h, read-out: HeKa cytokine release (IL-8) Rel EC50 range. The procedure: HeKa Cytokine Release (IL-8) Assay:
Primary human epidermal keratinocytes, HeKa, were seeded (10.000 cells/well) in 96-well plates the day before the assay. Test compounds were diluted in DMSO (dimethyl sulfoxide) and further diluted in assay medium and pipetted into wells of 96 well-plates containing HeKa cells. The plates were incubated for 6 h at 37° C. in humidified air with 5% CO2. Plates were centrifuged briefly to spin down cells at 4° C., the supernatant was removed and analysed by Meso Scale Discovery (MSD) 4-spot cytokine assay (Pro-inflammatory II Ultra Sensitive kit, MSD, MD, USA). The MSD assay employs a sandwich immunoassay format where capture antibodies are coated in a patterned array on the bottom of the wells of a 4-Spot-Multi-MSD plate. Standard samples were incubated in the MULTI-SPOT plates as well, and the cytokine (IL-8) binds to its corresponding capture antibody spot. The cytokine level was quantitated on a SECTOR™ Imager using a cytokine-specific Detection Antibody labelled with MSD SULFO-TAG™ reagent.
Test compound titration curves were fitted to a four-parameter sigmoidal curve after normalizing the effect of the test compound to the effect of the positive control (1.5×10^−7 M PEP0005). Rel EC50 denotes the concentration of test compound producing an effect that is midway between the fitted top and bottom.

The subject of a further experiment is HeLa cells. In words: Necrosis assay. Particulars: Homo sapiens, HeLa, 0.5 h, read-out: HeLa Necrosis EC50 range. The procedure: HeLa cells (ATCC CCL-002) were grown in minimal essential medium (Invitrogen catalog no. 42360) containing 10% fetal bovine serum, 100 IU/ml penicillin and 100 μg/ml streptomycin. 4,000-6,000 cells were seeded into 96-well black ViewPlates-plates, clear bottom, (Perkin Elmer) in 100 μl medium and incubated overnight. Compounds were dissolved and pre-diluted in DMSO in 96-well polypropylene plates (Greiner) in a concentration range of 15 μM to 600 μM. At the time of the experiment cell plates were placed on heating blocks at 37° C., medium was removed and 40 μl fresh, pre-warmed medium was added per well. Cells were incubated for 15 min before addition of compounds. In parallel, 3 μl of compounds were diluted with 197 μl growth medium on a Tecan freedom-EVO pipetting station using 250 μl/s pipetting speed, in order to ensure effective mixing of the highly concentrated compound solutions with the aqueous phase. These pre-dilution plates were then equilibrated on heating blocks at 37° C. for 10 min. 80 μl pre-diluted compound were transferred manually to the corresponding wells containing HeLa cells yielding compound concentrations of 10 μM to 400 μM. Control conditions were 1% DMSO in growth medium (100% viability) and 400 μM ingenol mebutate in growth medium (0% viability). Plates were incubated on the heating blocks at 37° C. for 30 min. At the end of the incubation 10 μl PrestoBlue reagent (Invitrogen) were added to each well, plates were sealed with black seal, followed by incubation at 37° C. for 10 min with gentle shaking (150 rpm). Subsequently, plates were placed at room temperature for 20-30 min. Plates were read immediately after on an Envision Fluorescence reader (Perkin Elmer) with excitation at 535 nm and emission at 630 nm. Test compound titration curves were fitted to a four-parameter sigmoidal curve after normalizing the effect of the test compound to the effect of the positive control (4 10^−4 M PEP0005/ingenol mebutate). AbsEC50 denotes the concentration of test compound producing 50% effect.

Where only a bound is given, the exact number is not on record here.

`C=C(C)C(=O)O[C@H]1C(C)=C[C@]23C(=O)[C@@H](C=C(CO)[C@@H](O)[C@]12O)[C@H]1[C@@H](C[C@H]3C)C1(C)C` [Compound 101, Ingenol 3-(2-methyl-acrylate)]: the EC50 (in general, the concentration at which the effect is half-maximal) in experiment [1] was under 0.02 µM; in experiment [2], over 0.1 µM; with HeLa cells, 150 to 350 µM.
In the case of `CC(C)=CC(=O)O[C@H]1C(C)=C[C@]23C(=O)[C@@H](C=C(CO)[C@@H](O)[C@]12O)[C@H]1[C@@H](C[C@H]3C)C1(C)C` [Compound 102, Ingenol 3-(3-methyl-butenoate)], the EC50 in experiment [1] is under 0.02 µM; in experiment [2], 0.02 to 0.1 µM; with HeLa cells it was 150 to 350 µM.
Consider `CC1=C[C@]23C(=O)[C@@H](C=C(CO)[C@@H](O)[C@]2(O)[C@H]1OC(=O)C(C)=C(C)C)[C@H]1[C@@H](C[C@H]3C)C1(C)C` [Compound 103, Ingenol 3-(2,3-dimethyl-butenoate)], for which the EC50 is under 0.02 µM in experiment [1], under 0.02 µM in experiment [2] and 150 to 350 µM with HeLa cells.
For the molecule `C=C(CC)C(=O)O[C@H]1C(C)=C[C@]23C(=O)[C@@H](C=C(CO)[C@@H](O)[C@]12O)[C@H]1[C@@H](C[C@H]3C)C1(C)C` [Compound 104, Ingenol 3-(2-methylene-butyrate)], the EC50 in experiment [1] was under 0.02 µM; in experiment [2], 0.02 to 0.1 µM; in the experiment with HeLa cells, 150 to 350 µM.
With `CC1=C[C@]23C(=O)[C@@H](C=C(CO)[C@@H](O)[C@]2(O)[C@H]1OC(=O)C(C)C)[C@H]1[C@@H](C[C@H]3C)C1(C)C` [Compound 105, Ingenol 3-(2-methyl-propanoate)], the EC50 in experiment [1] is under 0.02 µM; in experiment [2], 0.02 to 0.1 µM.
For `CC1=C[C@]23C(=O)[C@@H](C=C(CO)[C@@H](O)[C@]2(O)[C@H]1OC(=O)CC(C)C)[C@H]1[C@@H](C[C@H]3C)C1(C)C` [Compound 106, Ingenol 3-(3-methyl-butanoate)] the same measures were under 0.02 µM and 0.02 to 0.1 µM.
As to `CCC(C)C(=O)O[C@H]1C(C)=C[C@]23C(=O)[C@@H](C=C(CO)[C@@H](O)[C@]12O)[C@H]1[C@@H](C[C@H]3C)C1(C)C` (stereo partly shown) [Compound 107a and Compound 107b, Ingenol 3-(RS-2-methyl-butanoate)], the EC50 in experiment [1] was under 0.02 µM; in experiment [2] it was 0.02 to 0.1 µM.
In the case of `CC1=C[C@]23C(=O)[C@@H](C=C(CO)[C@@H](O)[C@]2(O)[C@H]1OC(=O)CC(C)(C)C)[C@H]1[C@@H](C[C@H]3C)C1(C)C` [Compound 108, Ingenol 3-(3,3-dimethyl-butanoate)], the figures for the EC50 (in experiment [1]; in experiment [2]; in the experiment with HeLa cells) were under 0.02 µM, 0.02 to 0.1 µM and 150 to 350 µM, respectively.
As for `CC[C@@H](C)C(=O)O[C@H]1C(C)=C[C@]23C(=O)[C@@H](C=C(CO)[C@@H](O)[C@]12O)[C@H]1[C@@H](C[C@H]3C)C1(C)C` [Compound 110, Ingenol 3-(2R-methyl-butanoate)], the EC50 in experiment [1] is under 0.02 µM; in experiment [2], 0.02 to 0.1 µM.
On to `COC(=O)/C=C/C(=O)O[C@H]1C(C)=C[C@]23C(=O)[C@@H](C=C(CO)[C@@H](O)[C@]12O)[C@H]1[C@@H](C[C@H]3C)C1(C)C` [Compound 113, Ingenol 3-(2Z-(methoxycarbonyl))-acrylate], for which the EC50 in experiment [1] was over 0.1 µM.
For `CO/N=C(/C(=O)O[C@H]1C(C)=C[C@]23C(=O)[C@@H](C=C(CO)[C@@H](O)[C@]12O)[C@H]1[C@@H](C[C@H]3C)C1(C)C)c1ccccc1` [Compound 116, Ingenol 3-((2E)-2-methoxyimino-2-phenyl-acetate)], the EC50 in experiment [1] and in experiment [2] was 0.02 to 0.1 µM throughout.
Take `CC1=C[C@]23C(=O)[C@@H](C=C(CO)[C@@H](O)[C@]2(O)[C@H]1OC(=O)C(C#N)=C1CCCCC1)[C@H]1[C@@H](C[C@H]3C)C1(C)C` [Compound 120, Ingenol 3-(2-cyano-2-cyclohexylidene-acetate)]: the EC50 is under 0.02 µM in experiment [1] and over 0.1 µM in experiment [2].
